The experiment concerns IL-2 secretion, Jurkat T cells. Kind of experiment: Inhibition of IL-2 secretion (PHA-stimulated Jurkat T cells, ELISA). The class given is cell-based. To be noted: Homo sapiens; Jurkat T cells stimulated with PHA, 20 to 24 hours. As for the experimental part: The CRAC channel modulatory activity of the compounds were thus evaluated by measuring the secretion of IL-2 by antigen stimulated T-cells in vitro. Alternatively, such activity can also be evaluated by assay methods known to one skilled in the art.
Inhibition of IL-2 secretion: Jurkat T cells were seeded at a density of 0.5 to 1 million cells per well in RPMI medium. Test compounds from this invention were added to the cells at different concentrations. This was followed by the addition of PHA, a T cell mitogen after 10 minutes.
The cells were then incubated for 20 to 24 hours in a CO2 incubator at 37° C. After incubation with the compounds, cells were centrifuged, collected the supernatant and processed for ELISA to quantitate the amount of IL-2 secreted. A commercial ELISA kit (R&D Systems, Inc. Minneapolis, Minn., USA) was used to estimate the IL-2 concentrations. Amount of IL-2 secreted by cells stimulated with PHA was considered as a 100% maximal signal and the decrease in amount of IL-2 secreted by cells treated with the test compounds was expressed as percent inhibition of the maximal signal. The dose response data was analyzed using 4-parametric sigmoidal dose response (variable slope) curve-fit.
(ELISA stands for enzyme-linked immunosorbent assay.)
Usually IC50 stands for the concentration at which inhibition is half-maximal. High values mean a need for much substance, low ones inhibition by little substance. Compound `Cc1c(-c2cnc(NC(=O)C3CCc4ccccc4C3)cn2)cccc1-c1nn(C)c(=O)o1` (racemic) [Example 138, (R/S)-N-(5-(2-Methyl-3-(4-methyl-5-oxo-4,5-dihydro-1,3,4-oxadiazol-2-yl)phenyl)pyrazin-2-yl)-1,2,3,4-tetrahydronaphthalene-2-carboxamide] had an IC50 of 100 to 1000 nM.
Under `Cc1ccc(C2=NOC(C)(C)C2=O)cc1-c1ccc(NC(=O)c2c(F)cccc2F)cc1` [Example 3] stands less than 100 nM; under `Cc1ccc(C2=NOC(C)(C)C2=O)cc1-c1ccc(NC(=O)c2c(F)cccc2F)nc1` [Example 4, N-(5-(5-(5,5-Dimethyl-4-oxo-4,5-dihydroisoxazol-3-yl)-2-methylphenyl)pyridin-2-yl)-2,6-difluorobenzamide], 100 to 1000 nM.
The value for `CCc1ccc(C2=NOC(C)(C)C2=O)cc1-c1ccc(NC(=O)c2c(F)cccc2F)cn1` [Example 7, N-(6-(5-(5,5-dimethyl-4-oxo-4,5-dihydroisoxazol-3-yl)-2-ethylphenyl)pyridin-3-yl)-2,6-difluorobenzamide] was 100 to 1000 nM.
The value for `CC(C)c1ccc(C2=NOC(C)(C)C2=O)cc1-c1cnc(NC(=O)c2c(F)cccc2F)cn1` [Example 8, N-(5-(5-(5,5-dimethyl-4-oxo-4,5-dihydroisoxazol-3-yl)-2-isopropylphenyl)pyrazin-2-yl)-2,6-difluorobenzamide] was 100 to 1000 nM; that for `CC1(C)ON=C(c2ccc(C(C)(C)C)c(-c3ccc(NC(=O)c4c(F)cccc4F)cc3)c2)C1=O` [Example 10, N-(2′-(tert-butyl)-5′-(5,5-dimethyl-4-oxo-4,5-dihydroisoxazol-3-yl)-[1,1′-biphenyl]-4-yl)-2,6-difluorobenzamide] was greater than 1000 nM.
The compound `CC1(C)ON=C(c2ccc(Cl)c(-c3ccc(NC(=O)c4c(F)cccc4F)cc3)c2)C1=O` [Example 11, N-(2′-chloro-5′-(5,5-dimethyl-4-oxo-4,5-dihydroisoxazol-3-yl)-[1,1′-biphenyl]-4-yl)-2,6-difluorobenzamide] came in with a 50% inhibitory concentration (IC50) of 100 to 1000 nM.
Under `COc1ccc(C2=NOC(C)(C)C2=O)cc1-c1ccc(NC(=O)c2snnc2C)cc1` [Example 16, N-(5′-(5,5-Dimethyl-4-oxo-4,5-dihydroisoxazol-3-yl)-2′-methoxy-[1,1′-biphenyl]-4-yl)-4-methyl-1,2,3-thiadiazole-5-carboxamide] stands less than 100 nM; under `COc1ccc(C2=NOC(C)(C)C2=O)cc1-c1ccc(NC(=O)c2c(F)cccc2F)nc1` [Example 17, N-(5-(5-(5,5-dimethyl-4-oxo-4,5-dihydroisoxazol-3-yl)-2-methoxyphenyl)pyridin-2-yl)-2,6-difluorobenzamide], greater than 1000 nM; under `COc1ccc(C2=NOC(C)(C)C2=O)cc1-c1ccc(NC(=O)c2c(F)cccc2F)cn1` [Example 18, N-(6-(5-(5,5-dimethyl-4-oxo-4,5-dihydroisoxazol-3-yl)-2-methoxyphenyl)pyridin-3-yl)-2,6-difluorobenzamide], 100 to 1000 nM.
The value for `CC(=O)Nc1ccc(C2=NOC(C)(C)C2=O)cc1-c1ccc(NC(=O)c2c(F)cccc2F)cc1` [Example 19, N-(2′-acetamido-5′-(5,5-dimethyl-4-oxo-4,5-dihydroisoxazol-3-yl)-[1,1′-biphenyl]-4-yl)-2,6-difluorobenzamide] was less than 100 nM; that for `COC1C(c2ccc(C)c(-c3cnc(NC(=O)c4c(F)cccc4F)cn3)c2)=NOC1(C)C` (centres unmarked) [Example 23, 2,6-difluoro-N-(5-(5-(4-methoxy-5,5-dimethyl-4,5-dihydroisoxazol-3-yl)-2-methylphenyl)pyrazin-2-yl)benzamide] was 100 to 1000 nM.
With `COC1C(c2ccc(C)c(-c3ccc(NC(=O)c4c(F)cccc4F)cc3)c2)=NOC1(C)C` (centres unmarked) [Example 24, 2,6-Difluoro-N-(5′-(4-methoxy-5,5-dimethyl-4,5-dihydroisoxazol-3-yl)-2′-methyl-[1,1′-biphenyl]-4-yl)benzamide], the IC50 fell in the range of 100 to 1000 nM.
The value for `COc1c(C2=NOC(C)(C)C2=O)cccc1-c1ccc(NC(=O)c2c(F)cccc2F)cc1` [Example 31, N-(3′-(5,5-Dimethyl-4-oxo-4,5-dihydroisoxazol-3-yl)-2′-methoxy-[1,1′-bipheny;]-4-yl)-2,6-difluorobenzamide] was 100 to 1000 nM; that for `Cc1ccc(-c2nn(C)c(=O)o2)cc1-c1ccc(NC(=O)c2c(F)cccc2F)cc1` [Example 33, 2,6-Difluoro-N-(2′-methyl-5′-(4-methyl-5-oxo-4,5-dihydro-1,3,4-oxadiazol-2-yl)-[1,1′-biphenyl]-4-yl)benzamide] was less than 100 nM.
Consider `CCn1nc(-c2ccc(C)c(-c3ccc(NC(=O)c4c(F)cccc4F)cc3)c2)oc1=O` [Example 34, N-(5′-(4-Ethyl-5-oxo-4,5-dihydro-1,3,4-oxadiazol-2-yl)-2′-methyl-[1,1′-biphenyl]-4-yl)-2,6-difluorobenzamide], for which the 50% inhibitory concentration (IC50) was less than 100 nM.
The compound `COc1ccc(-c2nn(C)c(=O)o2)cc1-c1ccc(NC(=O)c2c(F)cccc2F)cc1` [Example 40, 2,6-Difluoro-N-(2′-methoxy-5′-(4-methyl-5-oxo-4,5-dihydro-1,3,4-oxadiazol-2-yl)[1,1′-biphenyl]-4-yl)benzamide] displayed a 50% inhibitory concentration (IC50) of less than 100 nM.
Under `Cn1nc(-c2ccc(Cl)c(-c3ccc(NC(=O)c4c(F)cccc4F)cc3)c2)oc1=O` [Example 46, N-(2′-Chloro-5′-(4-methyl-5-oxo-4,5-dihydro-1,3,4-oxadiazol-2-yl)-[1,1′-biphenyl]-4-yl)-2,6-difluorobenzamide] stands less than 100 nM; under `Cc1ccc(C2=NOC(C)(C)C2)cc1-c1cnc(NC(=O)c2c(F)cccc2F)cn1` [Example 53], 100 to 1000 nM; under `Cc1ccc(C2=NOC3(CCCCC3)C2=O)cc1-c1ccc(NC(=O)c2c(F)cccc2F)cc1` [Example 58, 2,6-Difluoro-N-(2′-methyl-5′-(4-oxo-1-oxa-2-azaspiro[4.5]dec-2-en-3-yl)-[1,1′-biphenyl]-4-yl)benzamide], 100 to 1000 nM.
The value for `Cc1ccc(C2=NC(C)(C)CO2)cc1-c1ccc(NC(=O)c2c(F)cccc2F)cc1` [Example 61, N-(5′-(4,4-dimethyl-4,5-dihydrooxazol-2-yl)-2′-methyl-[1,1′-biphenyl]-4-yl)-2,6-difluorobenzamide] was 100 to 1000 nM; that for `Cc1ccc(C2=NOC(C)(C)C2=O)cc1-c1cnc(NC(=O)c2cc(F)ccc2F)cn1` [Example 67, N-(5-(5-(5,5-Dimethyl-4-oxo-4,5-dihydroisoxazol-3-yl)-2-methylphenyl)pyrazine-2-yl)-2,5-difluorobenzamide] was 100 to 1000 nM.
The value for `Cc1ccc(C2=NOC(C)(C)C2=O)cc1-c1cnc(NC(=O)c2ccc(F)cc2)cn1` [Example 69, N-(5-(5-(5,5-Dimethyl-4-oxo-4,5-dihydroisoxazol-3-yl)-2-methylphenyl)pyrazine-2-yl)-4-fluorobenzamide] was greater than 1000 nM; that for `Cc1ccc(C2=NOC(C)(C)C2=O)cc1-c1cnc(NC(=O)c2ccccc2Cl)cn1` [Example 78, 2-Chloro-N-(5-(5-(5,5-dimethyl-4-oxo-4,5-dihydroisoxazol-3-yl)-2-methylphenyl)pyrazin-2-yl)benzamide] was 100 to 1000 nM; that for `Cc1ccc(C2=NOC(C)(C)C2=O)cc1-c1cnc(NC(=O)c2c(F)cccc2Cl)cn1` [Example 80, 2-Chloro-N-(5-(5-(5,5-dimethyl-4-oxo-4,5-dihydroisoxazol-3-yl)-2-methylphenyl)pyrazin-2-yl)-6-fluorobenzamide] was less than 100 nM.
In the case of `Cc1ccc(-c2nn(C)c(=O)o2)cc1-c1cnc(NC(=O)c2c(F)cccc2F)cn1` [Example 87, 2,6-Difluoro-N-(5-(2-methyl-5-(4-methyl-5-oxo-4,5-dihydro-1,3,4-oxadiazol-2-yl)phenyl)pyrazin-2-yl)benzamide], the IC50 was less than 100 nM.
The compound `COc1ccc(-c2nn(C)c(=O)o2)cc1-c1cnc(NC(=O)c2c(F)cccc2F)cn1` [Example 93, 2,6-Difluoro-N-(5-(2-methoxy-5-(4-methyl-5-oxo-4,5-dihydro-1,3,4-oxadiazol-2-yl)phenyl)pyrazin-2-yl)benzamide] had an IC50 of less than 100 nM.
Under `Cc1ccc(C2=NOC(C)(C)C2=O)cc1-c1cnc(NC(=O)c2c(Cl)cncc2Cl)cn1` [Example 103, 3,5-Dichloro-N-(5-(5-(5,5-dimethyl-4-oxo-4,5-dihydroisoxazol-3-yl)-2-methylphenyl)pyrazin-2-yl)isonicotinamide] stands 100 to 1000 nM; under `Cc1ccc(C2=NOC(C)(C)C2=O)cc1-c1cnc(NC(=O)c2ccncc2F)cn1` [Example 107, N-(5-(5-(5,5-dimethyl-4-oxo-4,5-dihydroisoxazol-3-yl)-2-methylphenyl)pyrazin-2-yl)-3-fluoroisonicotinamide], 100 to 1000 nM.
The value for `Cc1ccc(C2=NOC(C)(C)C2=O)cc1-c1cnc(NC(=O)c2cccnc2C)cn1` [Example 113, N-(5-(5-(5,5-dimethyl-4-oxo-4,5-dihydroisoxazol-3-yl)-2-methylphenyl)pyrazin-2-yl)-2-methylnicotinamide] was 100 to 1000 nM.
The value for `Cc1ccc(C2=NOC(C)(C)C2=O)cc1-c1cnc(NC(=O)c2c(F)cncc2F)cn1` [Example 114, N-(5-(5-(5,5-dimethyl-4-oxo-4,5-dihydroisoxazol-3-yl)-2-methylphenyl)pyrazin-2-yl)-3,5-difluoroisonicotinamide] was less than 100 nM; that for `Cc1ccc(C2=NOC(C)(C)C2=O)cc1-c1cnc(C(=O)Nc2c(F)cccc2F)cn1` [Example 121, N-(2,6-Difluorophenyl)-5-(5-(5,5-dimethyl-4-oxo-4,5-dihydroisoxazol-3-yl)-2-methylphenyl)pyrazine-2-carboxamide] was 100 to 1000 nM.

The values above are taken from patent US10292981B2, “Oxazoline and isoxazoline derivatives as CRAC modulators” (LUPIN LIMITED, priority 2010, dated 2019).
